Assay results from ChEMBL document CHEMBL1158688, “Synthesis and characterization of the 7-(4-aminomethyl-1H-1,2,3-triazol-1-yl) analogue of kabiramide C” (J Nat Prod, 2005).
Calls of active or inactive are those of the source. The rule behind the calls is not given here.

Species: Oryctolagus cuniculus
Test: Binding affinity to rabbit Prodan-labeled G-actin

Activity | SMILES
Active | CO[C@H]([C@H](C)/C=C/N(C)C=O)[C@@H](C)C(=O)CC[C@H](C)[C@@H](C[C@@H]1OC(=O)CC(OC(N)=O)C[C@H](C)C[C@@H](n2cc(CN)nn2)[C@H](C)[C@@H](OC)c2coc(n2)-c2coc(n2)-c2coc(n2)/C=C/C[C@H](OC)[C@H]1C)OC (stereo partly drawn)
Active | CO[C@H]([C@H](C)/C=C/N(C)C=O)[C@@H](C)C(=O)CC[C@H](C)[C@@H](C[C@@H]1OC(=O)CC(OC(N)=O)C[C@H](C)C[C@@H](n2cc(CNC(=O)OCC3c4ccccc4-c4ccccc43)nn2)[C@H](C)[C@@H](OC)c2coc(n2)-c2coc(n2)-c2coc(n2)/C=C/C[C@H](OC)[C@H]1C)OC (stereo partly drawn)
Active | CO[C@H]([C@H](C)/C=C/N(C)C=O)[C@@H](C)C(=O)CC[C@H](C)[C@@H](C[C@@H]1OC(=O)CC(OC(N)=O)C[C@H](C)C[C@@H](N=[N+]=[N-])[C@H](C)[C@@H](OC)c2coc(n2)-c2coc(n2)-c2coc(n2)/C=C/C[C@H](OC)[C@H]1C)OC (stereo partly drawn)
